These results are taken from PubChem BioAssay (NCI).

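Values below derive from 48-hour exposures of cells grown in 96-well plates, with endpoints linearly interpolated between the two concentrations bracketing the appropriate inhibition level. GI50 marks 50% less growth. The concentration for full growth arrest is given as TGI.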

As usually defined, the TGI is the concentration at which net growth stops. Low values mean more potent growth arrest, high ones less potent growth arrest. In general, GI50 refers to the concentration giving 50% growth inhibition.

Some test systems named below: MALME-3M melanoma; NCI-H226 lung; SF-295 CNS; HCT-116 colon; NCI-H460 lung; SF-539 CNS; NCI-H522 lung; OVCAR-8 ovarian; BT-549 breast; MCF7 breast.
Common to all, as to assay: DTP human tumour cell line panel, 48 h

Consider `COC(=O)C(=C\Sc1ccccc1)/C=C/C(=O)OC(C)(C)C`, for which the concentration for total growth inhibition (TGI) in the assay on MALME-3M melanoma worked out at 30.7 µM; in the assay on NCI-H226 lung, 30.9 µM; with SF-295 CNS it was 34.3 µM; with HCT-116 colon, 21.9 µM; in the assay with NCI-H460 lung, 33.2 µM; in the assay with SF-539 CNS, 27 µM. The results for the concentration for total growth inhibition (TGI) in the assay with NCI-H522 lung and in the assay with OVCAR-8 ovarian were 9.9 µM and 31.2 µM, respectively.
Turning to `O=S1Cc2ccccc2CS1` (stereo not drawn), the TGI in the assay with MALME-3M melanoma is 26.4 µM; in the assay with NCI-H226 lung, more than 100 µM; with SF-295 CNS it was more than 100 µM; in the assay with HCT-116 colon, 57.2 µM; with NCI-H460 lung, 64.6 µM; in the assay with SF-539 CNS, 24.5 µM. Further, the total growth inhibition concentration (TGI) came out at 19.7 µM in the assay with NCI-H522 lung and 28.7 µM in the assay with OVCAR-8 ovarian.
For `Cc1ccc(/C=C/C(=O)c2sc(C(N)=S)nc2C)cc1`, the concentration for total growth inhibition (TGI) in the assay on MALME-3M melanoma, in the assay with NCI-H226 lung, in the assay on SF-295 CNS, in the assay with NCI-H460 lung, in the assay on SF-539 CNS and in the assay on NCI-H522 lung was more than 100 µM each time. The compound further came in with a total growth inhibition concentration (TGI) in the assay with OVCAR-8 ovarian of more than 100 µM.
For the compound `Cc1cc(=O)[nH]c(CNC(=O)c2cccc3ccccc23)n1`, the TGI in the assay with MALME-3M melanoma, in the assay on NCI-H226 lung, in the assay on SF-295 CNS, in the assay on HCT-116 colon, in the assay with NCI-H460 lung and in the assay with SF-539 CNS was more than 100 µM throughout. In addition, the TGI with NCI-H522 lung and in the assay on OVCAR-8 ovarian was more than 100 µM each time.
`C=C1C(=O)O[C@H]2[C@H]1CC/C(COC(=O)NCc1c[nH]c3ccc(OC)cc13)=C\CC[C@@]1(C)O[C@@H]21`: the GI50 was 2.14 µM with MALME-3M melanoma; 14.9 µM with NCI-H226 lung; 10.4 µM in the assay on SF-295 CNS; 0.268 µM in the assay with HCT-116 colon; 3.76 µM in the assay with NCI-H460 lung; 1.53 µM in the assay with SF-539 CNS. Further, the GI50 in the assay on BT-549 breast was 0.441 µM; in the assay on NCI-H522 lung it was 0.89 µM; with OVCAR-8 ovarian, 1.61 µM. For the same compound, the concentration for total growth inhibition (TGI) came out at 4.24 µM in the assay with MALME-3M melanoma; 35.5 µM in the assay on NCI-H226 lung; 22.3 µM with SF-295 CNS; 1.22 µM in the assay on HCT-116 colon; 16.7 µM in the assay on NCI-H460 lung; 3.02 µM in the assay with SF-539 CNS. The figures for the TGI in the assay on BT-549 breast, in the assay on NCI-H522 lung and in the assay with OVCAR-8 ovarian were 1.91 µM, 2.38 µM and 5.53 µM, respectively.
Regarding `COC(=O)C1C(=O)O[C@@H](c2ccc(OC)cc2)C1C(=O)OC` (stereo partly drawn), the TGI in the assay on MALME-3M melanoma, with NCI-H226 lung, in the assay with SF-295 CNS, in the assay with HCT-116 colon, with SF-539 CNS and in the assay on OVCAR-8 ovarian was more than 100 µM in each case.
Take `CC12Oc3ccc4ccccc4c3C1c1c(ccc3ccccc13)O2` (stereo not drawn): the TGI with MALME-3M melanoma, in the assay on NCI-H226 lung, with SF-295 CNS, in the assay on HCT-116 colon, in the assay on NCI-H460 lung and in the assay on SF-539 CNS was more than 100 µM each time. Moreover, the TGI with NCI-H522 lung and in the assay with OVCAR-8 ovarian was more than 100 µM throughout.
As for `CCCCC(SC(=S)N(CC)CC)C(=O)Nc1nc(CC(=O)OCC)cs1` (stereo not drawn), the GI50 was 24.8 µM in the assay with MALME-3M melanoma; 58 µM in the assay on NCI-H226 lung; 38.6 µM with SF-295 CNS; 29.8 µM with HCT-116 colon; 34.6 µM in the assay with SF-539 CNS; 39 µM in the assay with BT-549 breast. The values for the GI50 in the assay on NCI-H522 lung and in the assay on OVCAR-8 ovarian were 13.3 µM and 41.4 µM, respectively. The total growth inhibition concentration (TGI) in the assay with MALME-3M melanoma, in the assay on NCI-H226 lung, with SF-295 CNS, in the assay on HCT-116 colon, with SF-539 CNS and in the assay with BT-549 breast was more than 100 µM each time. The total growth inhibition concentration (TGI) in the assay on NCI-H522 lung and in the assay on OVCAR-8 ovarian was more than 100 µM throughout.
As for `Cn1c(O)c(C=N)c(=O)n(C)c1=O`, the TGI with MALME-3M melanoma, with NCI-H226 lung, with SF-295 CNS, in the assay with NCI-H460 lung, in the assay on NCI-H522 lung and in the assay with OVCAR-8 ovarian was more than 100 µM each time.
Consider `CC(=O)N(/N=C\c1ccc([N+](=O)[O-])cc1)c1ccccc1`, for which the concentration for total growth inhibition (TGI) in the assay with MALME-3M melanoma, in the assay with NCI-H226 lung, in the assay with SF-295 CNS, with HCT-116 colon, in the assay with NCI-H460 lung and with SF-539 CNS was more than 100 µM in each case. This compound registered a concentration for total growth inhibition (TGI) with OVCAR-8 ovarian of more than 100 µM.
As to `CC1C(=O)CCC1C(Sc1ccccc1)(Sc1ccccc1)Sc1ccccc1` (stereo not drawn), the TGI was more than 100 µM in the assay on MALME-3M melanoma; more than 100 µM in the assay on SF-295 CNS; more than 100 µM in the assay with HCT-116 colon; more than 100 µM in the assay with NCI-H460 lung; 35.1 µM in the assay on SF-539 CNS; 26.8 µM in the assay on NCI-H522 lung. The concentration for total growth inhibition (TGI) in the assay with OVCAR-8 ovarian was more than 100 µM.
With `COC1OC(COCc2ccc(Cl)cc2)C(OCc2ccc(Cl)cc2)C1O` (stereo not drawn), the TGI in the assay on MALME-3M melanoma turned out to be 30.3 µM; with SF-295 CNS, 32.3 µM; with NCI-H460 lung, 32 µM; with SF-539 CNS, 30.3 µM; with NCI-H522 lung, 27.5 µM; in the assay on OVCAR-8 ovarian, 69.7 µM.
For the compound `O=C(/C=C/c1ccccc1O)c1ccccc1`, the GI50 with MALME-3M melanoma is 5.5 µM; in the assay with NCI-H226 lung, 12.8 µM; in the assay with SF-295 CNS, 10.9 µM; in the assay with HCT-116 colon it was 1.58 µM; in the assay on NCI-H460 lung, 14.2 µM; in the assay on MCF7 breast, 1.34 µM. For the same compound, the GI50 is 15.4 µM in the assay on SF-539 CNS, 9.1 µM in the assay on NCI-H522 lung and 4.39 µM in the assay with OVCAR-8 ovarian. Besides, the TGI in the assay on MALME-3M melanoma was 20.4 µM; in the assay with NCI-H226 lung it was 26.1 µM; in the assay with SF-295 CNS it was 26.4 µM; in the assay with HCT-116 colon, 2.99 µM; in the assay on NCI-H460 lung it was 29 µM; in the assay with MCF7 breast, 5.69 µM. Besides, the TGI in the assay with SF-539 CNS came to 34.1 µM; in the assay with NCI-H522 lung, 22 µM; with OVCAR-8 ovarian it was 17.7 µM.
Regarding `CCCCCCCCCCCCCCCCc1c(C(=O)OC)[nH]c(=S)[nH]c1=O`, the TGI in the assay with MALME-3M melanoma, in the assay with SF-295 CNS, in the assay with HCT-116 colon, in the assay on NCI-H460 lung, in the assay on SF-539 CNS and with NCI-H522 lung was more than 50 µM throughout. The TGI with OVCAR-8 ovarian was more than 50 µM.
Take `CCCCCCCCC(=O)CCCCCCCCC(=O)O`: the TGI in the assay with MALME-3M melanoma is more than 100 µM; with NCI-H226 lung, 63.6 µM; in the assay on SF-295 CNS, more than 100 µM; in the assay on HCT-116 colon, 51 µM; in the assay with NCI-H460 lung, 44.6 µM; with SF-539 CNS, 42.5 µM. Moreover, the results for the TGI in the assay with NCI-H522 lung and with OVCAR-8 ovarian were 85 µM and 32.4 µM, respectively.
